Test results: patent US20220339233A1, “COMPOSITIONS AND METHODS FOR PREVENTING RECURRENCE OF CANCER” (YALE UNIVERSITY, priority 2019, published 2022)

Columns and labels:
mouse IDO = target: T1, mouse IDO (Mus musculus, UniProt P28776); test: IDO activity of IDO transfected HEK293 cells; assay type: cell-based; conditions: L-tryptophan 125 μM, 24 hr, kynurenine in medium
T1 construct: expressed in transfected cells; host or cells: HEK293
Protocol: HEK293 cells were transfected with mouse IDO expression plasmids and then seeded for culturing overnight. L-tryptophan 125 μM with or without YIV906, YIV906GU or its flavonoids were added to the wells for 24 hr. The concentration of kynurenine of culture medium was measured using colorimetric based assay. Results were normalized to protein concentration in each well.
2×10^6 HEK293 cells were transfected with mouse IDO (2 μg/10 cm plate) for 48 h. For one plate, 1 mL PBS was used to collect cells into a 2 ml tube. Cells were centrifuged at 3,500 rpm 1 min. Cells were then sonicated in ice cold PB buffer (1 mL, pH 6.5). Cell lysis was clarified by centrifuging at 12,000 rpm for 5 min at 4° C. 25 μL cell lysis solution was mixed with YIV906 or YIV906GU (25 μL) at desired concentrations. Reaction buffer containing 50 μL PB buffer (100 mM, pH 6.5), 10 μL methylene blue (2.5%), 100 μL catalase (20 mg/mL), 250 μL L-tryptophan (500 mM) and, for every 10 mL of total solution, 70 mg of vitamin C. The reaction buffer was then added to the cell lysis solution. The solution was allowed to react for 1.5 h at 37° C. Trichloroacetic acid 30% (25 μL) was added and incubated at 50° C. for 1 hr. […] Absorbance at 540 nm was measured using a UV-vis spectrometer to determine kynurenine concentration.

Raw cells = test: iNOS/Arg mRNA expression of macrophage with IFNγ (RT-qPCR); assay type: cell-based; conditions: in the presence of IFNγ 10 ng/mL; GU treated
Protocol: (§1) FIGS. 12A-12C show the effects of various YIV-906 formulations on M1/M2 mRNA expression. […] Raw cells were cultured in the presence of murine M-CSF (10 ng/mL) for 3 days, and then cultured in presence with IFNγ 10 ng/mL alone or with YIV-906GU/its components to induce polarization to M1-like macrophage for 24 h. The mRNA expression was determined by RT-qPCR following treatment at day 8. FIG. 12C illustrates the detection of YIV-906 compounds of Hepa 1-6 tumor following oral administration of YIV-906 with or without Anti-PD1 using LC-MS as described herein.
Total RNA was extracted with TRIzol reagent (Invitrogen, California, USA). The aqueous phase was collected and then one volume of ethanol was added, following the manufacturer's instructions. Before centrifuging, this slurry was added to a column (miRNeasy, Qiagen, Venlo, Limburg) for further extraction and simultaneous DNA digestion (RNase-Free DNAse set, Qiagen). cDNA was synthesized using random primers and reverse transcriptase MMLV (New England Biolabs, Ipswich, MA). qPCR assays were performed using iTaq™ SYBR® Green Supermix and the CFX96 Real-Time PCR Detection System (Bio-Rad Laboratories, Hercules, Calif.).

[1] = LC-MS detection of YIV-906 compounds of Hepa 1-6 tumor; parameters: species or system mice; conditions: mouse, in vivo; for detection in the tumor mass: po
Protocol: as §1
Each tumor sample were homogenized in 200 μL acetronitrile/methanol/water(2/2/1, v/v/v) and 1 mm glass beads (BioSpec Products, Bartlesville, Okla.) for 30 s at 3500 rpm twice. The homogenate was then centrifuged at 12000 rpm for 15 min at 4° C. The supernatant was dried down in a Speedvac. The residue of each tumor sample was re-dissolved in 100 μL of acetonitrile, and vortexed at 3000 rpm for 3 min. The solution was then centrifuged at 12000 rpm at 4° C. for 15 min, and 2 μL supernatant was injected into the UPLC-QTOF system for analysis. All sample analyses were performed on an ACQUITY ultra-performance liquid chromatography (UPLC) system coupled with a quadrupole-time of flight (Q-TOF) MS instrument (UPLC Xevo G2-XS QTOF MS, Waters Corp., Milford, Mass., USA) with an electrospray ionization (ESI) source. Separation was carried out on a Waters ACQUITY BEH C18 column (2.1 mm×100 mm id, 1.7 μm) with a guard column (Waters ACQUITY BEH C18 column (2.1 mm×5 mm id, 1.7 μm)).
The mobile phase consisted of acetonitrile (A) and water containing 0.1% formic acid (B) using a gradient elution of 5% A at 0-2 min, 5-10% A at 2-3 min, 10-17% A at 3-10 min, 17-30% A at 10-15 min, 30-40% A at 15-20 min, 40-80% A at 20-25 min, 80% A at 25-30 min, 80-5% A at 30-31 min, and 5% A at 31-35 min. The flow rate was 0.3 mL/min. Mass spectrometry was performed on a Water Xevo G2-XS QTOF. The scan range was from 50 to 1000 Da. For the negative electrospray mode, the capillary voltage and cone voltage were set at 2.5 kV and 60 V, respectively. […]

T1 sequence (P28776 whole entry): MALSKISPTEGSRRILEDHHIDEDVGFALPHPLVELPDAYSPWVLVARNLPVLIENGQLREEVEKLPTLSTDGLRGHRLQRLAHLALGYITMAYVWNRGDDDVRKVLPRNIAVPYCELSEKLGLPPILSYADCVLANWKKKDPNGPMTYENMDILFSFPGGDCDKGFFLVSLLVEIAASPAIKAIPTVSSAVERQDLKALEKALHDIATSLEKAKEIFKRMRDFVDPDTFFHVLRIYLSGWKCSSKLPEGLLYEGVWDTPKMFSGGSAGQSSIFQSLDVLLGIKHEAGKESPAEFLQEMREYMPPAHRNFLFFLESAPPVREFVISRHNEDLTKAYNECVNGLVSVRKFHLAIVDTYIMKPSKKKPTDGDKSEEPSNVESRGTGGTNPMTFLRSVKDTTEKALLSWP

IDO enzyme activity in cell cultures (mouse IDO) | presence in tumors of the YIV-906 plus anti-PD1 group [1] | Compound | IFNγ action on increasing iNOS/Arg ratio (Raw cells) | detection in the tumor mass [1]
most potent | did not have | O=c1cc(-c2ccccc2)oc2cc(O)c(O)c(O)c12 [baicalein] | potentiate | detected
– | – | COc1c(O)cc2oc(-c3ccccc3)cc(=O)c2c1O [oroxylin A] | potentiate | detected
